These are literature values, as cited in US10603329B2 (INDENA S.P.A., priority 2006, dated 2020).

The data set has as its system cancer cells. Conditions: in vitro; read-out: IC50, growth of cancer cells.

As for `COc1cc(C=CC(=O)CC(=O)C=Cc2ccc(O)c(OC)c2)ccc1O` [curcumin, 1,7-bis(4-hydroxyl-3-methoxyphenyl)-1,6-heptadiene-3,5-dione], the IC50 was 20 to 75 µM.
